Measurements taken from patent US20240124503A1, “HETEROAROMATIC PHOSPHONIUM SALTS AND THEIR USE TREATING CANCER” (FLORATEK PHARMA S.A., priority 2021, published 2024).

Key:
BT-474 = assay: Cell viability assay, BT-474; assay type: cell-based; conditions: Homo sapiens; breast carcinoma cell line BT-474
Procedure: (§1) Antitumor activity of the compounds and doxorubicin as a positive control was assessed by using the CellTiter-Blue Cell Viability Assay (Promega, #G8082) or CellTiter-Glow® Luminescent Cell Viability assay (Promega #G7572) according to the manufacturer's instructions. The compounds were tested at 5 or 6 concentrations in half-log increments (highest concentration 30 μM or 100 μM) in duplicate or triplicate well conditions.
(§2) Tumor cells were grown at 37° C. in a humidified atmosphere with 5% CO2 in RPMI 1640 or DMEM medium, supplemented with 10% (v/v) fetal calf serum and 50 μg/ml gentamicin for up to 20 passages, and were passaged once or twice weekly. Cells were harvested using TrypLE or PBS buffer containing 1 mM EDTA, and the percentage of viable cells was determined using a CASY Model TI cell counter (OMNI Life Science). Cells were harvested from exponential phase cultures, counted and plated in 96 well flat-bottom microtiter plates at a cell density depending on the cell line's growth rate (4,000-20,000 cells/well depending on the cell line's growth rate, up to 60,000 for hematological cancer cell lines) in RPMI 1640 or DMEM medium supplemented with 10% (v/v) fetal calf serum and 50 μg/ml gentamicin (140 μl/well). […] Viability of cells was quantified by the CellTiter-Blue® cell viability assay (Promega G8081) or CellTiter-Glow® Luminescent Cell Viability assay (Promega #G7572). […]

ABL1-nonphosphorylated = target: T1, ABL1-nonphosphorylated (Homo sapiens, UniProt P00519); assay: KINOMEscan competition binding, ABL1-nonphosphorylated
T1 construct: purchased Eurofins (KINOMEscan); host or cells: E. coli BL21-derived host (T7 phage) or HEK-293
Procedure: (§3) Selected compounds were screened for kinase inhibition using the KINOMEscan™ assay (Eurofins) which is based on a competition binding assay that quantitatively measures the ability of a compound to compete with an immobilized, active-site directed ligand. The assay was performed by combining three components: DNA-tagged kinase; immobilized ligand; and the test compound. The ability of the test compound to compete with the immobilized ligand was measured via quantitative PCR of the DNA tag.
(§4) Kinase-tagged T7 phage strains were prepared in an E. coli host derived from the BL21 strain. E. coli were grown to log-phase and infected with T7 phage and incubated with shaking at 32° C. until lysis. The lysates were centrifuged and filtered to remove cell debris. The remaining kinases were produced in HEK-293 cells and subsequently tagged with DNA for qPCR detection. Streptavidin-coated magnetic beads were treated with biotinylated small molecule ligands for 30 minutes at room temperature to generate affinity resins for kinase assays. […] Kds were determined using an 11-point 3-fold compound dilution series with three DMSO control points. […] The kinase concentration in the eluates was measured by qPCR. […]
(§5) Binding constants (Kds) were calculated with a standard dose-response curve using the Hill equation: Response=Background+[Signal−Background/1+(Kd^Hill Slope/Dose^Hill Slope)] […]

HCC1806 = assay: Cell viability assay, HCC1806; assay type: cell-based; conditions: Homo sapiens; breast carcinoma cell line HCC1806
Procedure: as §1, §2

A549 = assay: Cell viability assay, A549; assay type: cell-based; conditions: Homo sapiens; lung carcinoma cell line A549
Procedure: as §1, §2

RIOK2 = target: T2, RIOK2 (Homo sapiens, UniProt Q9BVS4); assay: KINOMEscan competition binding, RIOK2
T2 construct: purchased Eurofins (KINOMEscan); host or cells: E. coli BL21-derived host (T7 phage) or HEK-293
Procedure: as §3, §4, §5

[1] = target: T3, RSK2(Kin.Dom.1-N-terminal) (Homo sapiens, UniProt P51812); assay: KINOMEscan competition binding, RSK2(Kin.Dom.1-N-terminal)
T3 construct: Kin.Dom.1; purchased Eurofins (KINOMEscan); host or cells: E. coli BL21-derived host (T7 phage) or HEK-293
Procedure: as §3, §4, §5

MDA-MB-231 = assay: Cell viability assay, MDA-MB-231; assay type: cell-based; conditions: Homo sapiens; breast carcinoma cell line MDA-MB-231
Procedure: as §1, §2

lung carcinoma cell = assay: Cell viability, lung carcinoma cells (panel statement); assay type: cell-based; conditions: summary of Table 13; read-out: IC50, lung carcinoma cell growth
Procedure: as §1, §2

ovarian cancer cell = assay: Cell viability, ovarian cancer cells (panel statement); assay type: cell-based; conditions: Table 17; read-out: IC50, ovarian cancer cell growth
Procedure: as §1, §2

prostate cancer cell = assay: Cell viability, prostate cancer cells (panel statement); assay type: cell-based; conditions: summary of Table 20; read-out: IC50, prostate cancer cell growth
Procedure: as §1, §2

TRKA = target: T4, TRKA (Homo sapiens, UniProt P04629); assay: KINOMEscan competition binding, TRKA
T4 construct: purchased Eurofins (KINOMEscan); host or cells: E. coli BL21-derived host (T7 phage) or HEK-293
Procedure: as §3, §4, §5

Panc-1 = assay: Cell viability assay, Panc-1; assay type: cell-based; conditions: pancreatic carcinoma cell line Panc-1
Procedure: as §1, §2

T2 sequence (Q9BVS4 whole entry): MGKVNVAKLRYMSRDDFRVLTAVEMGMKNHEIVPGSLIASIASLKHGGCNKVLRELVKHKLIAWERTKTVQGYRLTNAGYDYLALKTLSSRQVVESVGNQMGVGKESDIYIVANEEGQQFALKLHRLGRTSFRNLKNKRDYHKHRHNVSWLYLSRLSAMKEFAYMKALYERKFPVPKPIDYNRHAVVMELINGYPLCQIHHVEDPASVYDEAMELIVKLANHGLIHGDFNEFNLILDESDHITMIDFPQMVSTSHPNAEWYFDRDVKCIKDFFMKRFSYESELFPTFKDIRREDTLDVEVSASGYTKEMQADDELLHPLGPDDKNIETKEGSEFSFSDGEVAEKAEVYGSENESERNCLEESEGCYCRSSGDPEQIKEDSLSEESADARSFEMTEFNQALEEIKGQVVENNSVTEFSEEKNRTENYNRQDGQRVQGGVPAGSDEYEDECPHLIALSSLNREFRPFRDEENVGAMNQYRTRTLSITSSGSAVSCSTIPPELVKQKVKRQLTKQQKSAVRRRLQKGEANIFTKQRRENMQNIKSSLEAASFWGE
T1 sequence (P00519 whole entry): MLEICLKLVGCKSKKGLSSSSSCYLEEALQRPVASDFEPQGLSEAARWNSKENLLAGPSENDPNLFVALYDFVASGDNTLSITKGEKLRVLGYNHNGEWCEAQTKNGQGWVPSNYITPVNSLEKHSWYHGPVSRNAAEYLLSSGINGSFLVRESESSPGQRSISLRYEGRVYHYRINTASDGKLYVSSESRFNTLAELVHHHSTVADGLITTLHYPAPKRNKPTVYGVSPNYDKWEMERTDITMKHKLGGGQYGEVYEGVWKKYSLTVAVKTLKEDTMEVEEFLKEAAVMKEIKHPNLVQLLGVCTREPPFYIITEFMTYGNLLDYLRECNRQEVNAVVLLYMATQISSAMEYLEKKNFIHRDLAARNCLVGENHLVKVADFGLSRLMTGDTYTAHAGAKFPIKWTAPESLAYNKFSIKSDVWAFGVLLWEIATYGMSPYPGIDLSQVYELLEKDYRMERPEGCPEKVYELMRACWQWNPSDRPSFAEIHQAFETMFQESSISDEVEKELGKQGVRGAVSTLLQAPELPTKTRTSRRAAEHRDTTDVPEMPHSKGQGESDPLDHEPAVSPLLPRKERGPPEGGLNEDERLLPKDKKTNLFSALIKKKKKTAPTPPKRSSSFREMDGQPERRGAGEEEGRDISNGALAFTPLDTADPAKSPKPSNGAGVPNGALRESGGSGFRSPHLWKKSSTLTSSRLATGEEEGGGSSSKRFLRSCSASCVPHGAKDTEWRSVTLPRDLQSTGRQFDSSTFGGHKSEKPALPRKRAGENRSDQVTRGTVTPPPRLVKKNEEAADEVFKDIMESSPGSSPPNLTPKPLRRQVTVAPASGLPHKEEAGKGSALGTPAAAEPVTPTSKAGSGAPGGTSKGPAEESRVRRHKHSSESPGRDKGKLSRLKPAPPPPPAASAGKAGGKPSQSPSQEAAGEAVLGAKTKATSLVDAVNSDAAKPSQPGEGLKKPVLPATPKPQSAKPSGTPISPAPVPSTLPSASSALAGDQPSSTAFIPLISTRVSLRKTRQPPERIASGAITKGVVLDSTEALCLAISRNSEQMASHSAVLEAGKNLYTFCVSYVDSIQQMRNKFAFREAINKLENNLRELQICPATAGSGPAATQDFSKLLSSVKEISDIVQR
T4 sequence (P04629 33-796): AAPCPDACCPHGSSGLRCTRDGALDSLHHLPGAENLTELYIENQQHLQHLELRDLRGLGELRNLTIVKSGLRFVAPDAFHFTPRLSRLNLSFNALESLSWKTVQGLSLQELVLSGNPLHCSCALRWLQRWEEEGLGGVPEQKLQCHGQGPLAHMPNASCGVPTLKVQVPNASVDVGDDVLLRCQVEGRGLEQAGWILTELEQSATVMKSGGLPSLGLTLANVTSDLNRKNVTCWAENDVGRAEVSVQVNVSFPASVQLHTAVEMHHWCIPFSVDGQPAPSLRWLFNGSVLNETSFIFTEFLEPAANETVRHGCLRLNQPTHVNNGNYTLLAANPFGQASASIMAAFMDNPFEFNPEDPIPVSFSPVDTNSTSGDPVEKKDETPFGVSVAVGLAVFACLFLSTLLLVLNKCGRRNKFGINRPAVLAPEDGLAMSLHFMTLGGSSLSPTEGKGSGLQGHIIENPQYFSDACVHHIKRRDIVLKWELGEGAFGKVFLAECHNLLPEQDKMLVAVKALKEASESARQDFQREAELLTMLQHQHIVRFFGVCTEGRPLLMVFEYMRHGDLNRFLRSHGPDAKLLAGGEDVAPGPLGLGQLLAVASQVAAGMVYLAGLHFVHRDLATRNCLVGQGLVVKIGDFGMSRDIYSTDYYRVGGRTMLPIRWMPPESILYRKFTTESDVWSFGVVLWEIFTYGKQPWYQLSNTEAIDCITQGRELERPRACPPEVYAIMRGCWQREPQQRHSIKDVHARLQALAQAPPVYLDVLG
T3 sequence (P51812 68-327 limits assumed): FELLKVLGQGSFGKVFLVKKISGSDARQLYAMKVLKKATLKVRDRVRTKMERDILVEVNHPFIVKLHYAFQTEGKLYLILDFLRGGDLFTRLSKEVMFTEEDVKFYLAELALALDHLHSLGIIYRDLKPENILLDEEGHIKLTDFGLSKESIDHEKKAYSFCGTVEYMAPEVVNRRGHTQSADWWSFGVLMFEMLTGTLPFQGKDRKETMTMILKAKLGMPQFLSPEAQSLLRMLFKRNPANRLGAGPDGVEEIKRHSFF

IC50 (BT-474)	Kd (ABL1-nonphosphorylated)	IC50 (HCC1806)	IC50 (A549)	Kd (RIOK2)	Kd [1]	IC50 (MDA-MB-231)	IC50 (lung carcinoma cell)	IC50 (ovarian cancer cell)	IC50 (prostate cancer cell)	Kd (TRKA)	SMILES	IC50 (Panc-1)
1.9 µM	0.46 µM	2.8 µM	13.8 µM	0.71 µM	1.7 µM	3.5 µM	< 20 µM	< 20 µM	< 10 µM	2.3 µM	COc1c(O)ccc2c(=O)c(O)c(-c3ccc(CCCC[P+](c4ccccc4)(c4ccccc4)c4ccccc4)cc3)oc12 [SND190, (4-(4-(3,7-Dihydroxy-8-methoxy-4-oxo-4H1-chromen-2-yl)phenyl)butyl)triphenylphosphonium bromide]	–
–	–	–	–	–	–	–	–	–	–	–	O=c1cc(-c2ccc(CCC[P+](c3ccccc3)(c3ccccc3)c3ccccc3)cc2)oc2c(O)c(O)ccc12 [SND200, (3-(4-(7,8-Dihydroxy-4-oxo-4H1-chromen-2-yl)phenyl)propyl)triphenylphosphonium bromide]	1.33 µM
